Read-outs that look alike come from different tables or passages of the source.
Key:
[1] = tested on: NS5A chimeric genotype 1b Con1 replicon with genotype 3a S52 strain NS5A gene; experiment: Replicon assay, genotype 3a NS5A chimera; type: cell-based, HCV; conditions: Hepatitis C virus
[2] = IV and PO single dose pharmacokinetic studies in SD rats; type: in vivo, male Sprague-Dawley (SD) rats; conditions: Sprague-Dawley, rat, plasma, male SD rats, PO 2 mg/kg vs IV infusion 1 mg/kg, read-out: Rat % F
Description: IV and PO Single Dose Pharmacokinetic Studies in SD Rats:
The pharmacokinetics of selected compounds was characterized in male Sprague-Dawley (SD) rats (250-300g). In this study, two groups of naïve purebred SD rats (N=3 per group, fasted over night) received the selected compound either as an intravenous (IV) infusion (1 mg/kg over 30 minutes) via the jugular vein or by oral gavage (2 mg/kg). The intravenous (IV) dosing vehicle was 5% ethanol, 35% polyethylene glycol 400 (PEG 400) and 60% water pH 2.0. The oral dosing vehicle was 5% ethanol, 55% PEG 400 and 40% citrate buffer pH 2.2.
Serial blood samples (approximately 0.3 mL each) were collected from jugular vein or other suitable vein at specified time points. For the IV infusion group, the blood samples were collected predose and at 0.25, 0.48, 0.58, 0.75, 1.5, 3, 6, 8, 12 and 24 hours after the start of infusion. For the oral group, the blood samples were collected predose and at 0.25, 0.50, 1, 2, 4, 6, 8, 12 and 24 hours after dosing. The blood samples were collected into VacutainerγM tubes containing EDTA-K3 as the anti-coagulant and were centrifuged at approximately 4° C. to obtain plasma. The plasma samples were stored at −20° C. until analysis by LC/MS/MS.
A bioanalytical method utilizing high performance liquid chromatography coupled to tandem mass spectrometry (LC/MS/MS) was developed for analysis of the selected compound in rat plasma. Detection was performed using selected reaction monitoring (SRM); Ions representing the precursor (M+H)^+ species was selected in quadrupole 1 (Q1) and collided with argon gas in the collision cell (Q2) to generate specific product ion, which was subsequently monitored by quadrupole 3 (Q3). Standard curve and quality control samples were prepared in male rat plasma and processed in the same way as the test samples to generate quantitative data.
Pharmacokinetic parameters were generated using non-compartmental pharmacokinetic analysis (Phoenix WinNonlin, version 6.3). Values below the lower limit of quantification (LLOQ) were assigned a value of zero if predose and treated as missing thereafter. Area under the curve (AUC) was calculated using the linear trapezoidal rule. The oral bioavailability (% F) was determined by comparison of the area under the curve (AUC) of the compound and/or a metabolite generated in plasma following oral administration to that generated following intravenous administration.

[3] = tested on: stable HCV 2a JFH-1 Rluc replicon cells (L31 present in NS5A); experiment: Renilla luciferase HCV replicon reporter assay, genotype 2a JFH-1; type: cell-based; conditions: Hepatitis C virus
In short: (§1)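 Cells carrying the stable or transiently transfected (Huh-Lunet) dicistronic RLuc replicons received 3-fold serial compound dilutions from 10 mM DMSO stocks. After 72 h, cells were lysed and Renilla luciferase read. DMSO served as the no-inhibition control and ITMN-191 above 100×EC50 as the positive control; EC50 by non-linear regression.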

[4] = tested on: stable HCV 1a RLuc replicon cells (dicistronic genotype 1a H77 replicon); experiment: Renilla luciferase HCV replicon reporter assay, genotype 1a; type: cell-based; conditions: Hepatitis C virus, 72 h, stable 1a H77 RLuc replicon cells
In short: as §1

[5] = tested on: NS5A chimeric genotype 2a JFH-1 replicon with genotype 2b MD2b-1 strain NS5A gene (M31 present); experiment: Replicon assay, genotype 2b NS5A chimera; type: cell-based, HCV; conditions: Hepatitis C virus
In short: as §1

[6] = tested on: stable HCV 1b RLuc replicon cells (dicistronic genotype 1b Con1 replicon); experiment: Renilla luciferase HCV replicon reporter assay, genotype 1b; type: cell-based; conditions: Hepatitis C virus, 72 h, stable 1b Con1 RLuc replicon cells, 72 hours; read-out: 1b
In short: as §1

[7] = tested on: NS5A chimeric genotype 1b Con1 replicon with genotype 4a ED43 strain NS5A gene; experiment: Replicon assay, genotype 4a NS5A chimera; type: cell-based, HCV; conditions: Hepatitis C virus
[8] = tested on: NS5A chimeric genotype 2a JFH-1 replicon with genotype 2a J6 strain NS5A gene (M31 present); experiment: Replicon assay, genotype 2a J6 NS5A chimera; type: cell-based, HCV; conditions: Hepatitis C virus
In short: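 EC50 was fitted by non-linear regression to Renilla luciferase signal after 72 h of exposure to 3-fold serially diluted compound (10 mM DMSO stocks). Controls were DMSO (none) and ITMN-191 above 100×EC50 (full). Chimeric 2a replicons were used either stable or transiently transfected into Huh-Lunet cells.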

[9] = tested on: Q30R in genotype 1a NS5A (1a Pi-Rluc replicon, Huh-7-derived cured-51 cells); experiment: Replicon assay against resistance mutant 1a Q30R; type: cell-based, HCV; conditions: Hepatitis C virus
Description: Antiviral potency (EC50) was determined using a Renilla luciferase (RLuc)-based HCV replicon reporter assay. To perform the assay for genotype 1 and 2a JFH-1, stable HCV 1a RLuc replicon cells (harboring a dicistronic genotype 1a H77 replicon that encodes a RLuc reporter), stable HCV 1b RLuc replicon cells (harboring a dicistronic genotype 1b Con1 replicon that encodes a RLuc reporter), or stable HCV 2a JFH-1 Rluc replicon cells (harboring a dicistronic genotype 2a JFH-1 replicon that encodes a RLuc reporter; with L31 present in NS5A) were dispensed into 384-well plates for EC50 assays. To perform the assay for genotype 2a (with M31 present in NS5A) or 2b, NS5A chimeric genotype 2a JFH-1 replicons that encodes a RLuc-Neo reporter and either genotype 2a J6 strain NS5A gene or genotype 2b MD2b-1 strain NS5A gene (both with M31 present) respectively, were either transiently transfected (t) into Huh-Lunet cells or were established as stably replicating replicon cells (s) is provided. Either cells were dispensed into 384-well plates for EC50 assays. To perform the assay for genotype 3 and 4, NS5A chimeric genotype 1b Con1 replicons that encodes a Pi-RLuc reporter and either genotype 3a S52 strain NS5A gene or genotype 4a ED43 strain NS5A gene respectively, were transiently transfected (t) into Huh-Lunet cells, which were subsequently dispensed into 384-well plates. Compounds were dissolved in DMSO at a concentration of 10 mM and diluted in DMSO either manually or using an automated pipeting instrument. Serially 3-fold diluted compounds were either manually mixed with cell culture media and added to the seeded cells or directly added to the cells using an automated instrument. DMSO was used as a negative (solvent; no inhibition) control, and the protease inhibitor ITMN-191 was included at a concentration>100×EC50 as a positive control. 72 hours later, cells were lysed and Renilla luciferase activity quantified as recommended by the manufacturer (Promega-Madison, Wis.). Non-linear regression was performed to calculate EC50 values.
To determine the antiviral potency (EC50) against resistance mutants, resistance mutations, including M28T, Q30R, Q30H, Q30E, L31M, Y93C, Y93H, and Y93N in genotype 1a NS5A, Y93H and L31V/Y93H in genotype 1b NS5A, and Y93H for in genotype 3a NS5A, were introduced individually into either 1a Pi-Rluc or 1b Pi-Rluc replicons by site directed mutagenesis. Replicon RNA of each resistant mutant was transiently transfected into Huh-7-derived cured-51 cells and antiviral potency was determined on these transfected cells as described above.

[10] = read-out: 3a (s) (nM), genotype 3a NS5A chimeric replicon, stable replicon cells (s)
[11] = read-out: 3a (s), (s), activity range
[12] = read-out: 2a JFH (nM), genotype 2a JFH-1 replicon (L31 in NS5A), stable cells
[13] = read-out: 2a JFH, stable 2a JFH-1 Rluc replicon cells, L31 in NS5A, activity range
[14] = 2BS, read-out: 2b (s), stably replicating replicon cells (s), activity range
[15] = read-out: 2b (s) (nM), genotype 2b MD2b-1 NS5A chimeric replicon (M31), stably replicating replicon cells (s)
[16] = read-out: 4a (s) (nM), genotype 4a NS5A chimeric replicon, stable replicon cells (s)
[17] = read-out: 4a (s), (s), activity range
[18] = read-out: 2a J6 (t) (nM), genotype 2a J6 NS5A chimeric replicon (M31), transiently transfected (t) into Huh-Lunet cells
[19] = read-out: 2a J6 (t), transiently transfected (t) into Huh-Lunet cells, activity range

| SMILES | EC50 [1, 10] | EC50 [1, 11] | bioavailability [2] | EC50 [3, 12] | EC50 [3, 13] | EC50 [4] | EC50 ([4]; activity range) | EC50 [5, 14] | EC50 [5, 15] | EC50 [6] | EC50 [7, 16] | EC50 [7, 17] | EC50 [8, 18] | EC50 [8, 19] | EC50 ([9]; read-out: 1a Q30R) | EC50 ([9]; read-out: 1a Q30R (nM)) | EC50 ([1]; read-out: 3a (t) (nM), genotype 3a NS5A chimeric replicon, transiently transfected (t)) | EC50 ([1]; read-out: 3a (t), transiently transfected (t) into Huh-Lunet cells, activity range) | EC50 ([5]; read-out: 2b (t) (nM), genotype 2b MD2b-1 NS5A chimeric replicon (M31), transiently transfected (t)) | EC50 ([5]; read-out: 2b (t), transiently transfected (t) into Huh-Lunet cells, activity range) |
| --- | --- | --- | --- | --- | --- | --- | --- | --- | --- | --- | --- | --- | --- | --- | --- | --- | --- | --- | --- | --- |
| CC[C@H]1CC[C@@H](c2nc3ccc4cc5c(cc4c3[nH]2)OCc2cc(-c3cnc([C@@H]4CC[C@H](C)N4C(=O)[C@@H](NC(=O)OC)C(C)C)[nH]3)ccc2-5)N1C(=O)[C@@H](NC(=O)OC)[C@@H](C)OC [EP, Methyl {(2S,3R)-1-[(2S,5S)-2-ethyl-5-(9-{2-[(2S,5S)-1-{(2S)-[(methoxycarbonyl)amino]-3-methylbutanoyl}-5-methylpyrrolidin-2-yl]-1H-imidazol-5-yl}-1,11-dihydroisochromeno[4′,3′:6,7]naphtho[1,2-d]imidazol-2-yl)pyrrolidin-1-yl]-3-methoxy-1l-oxobutan-2-yl}carbamate] | 0.115 nM | 0.1 to 0.999 nM | 17.5% | 0.013 nM | < 0.1 nM | 0.014 nM | < 0.1 nM | 0.1 to 0.999 nM | 0.213 nM | 0.024 nM |  |  |  |  |  |  |  |  |  |  |
| CC[C@H](C)[C@H](NC(=O)OC)C(=O)N1[C@@H](C)CC[C@H]1c1ncc(-c2ccc3c(c2)COc2cc4c(ccc5nc([C@@H]6CC[C@H](C)N6C(=O)[C@@H](NC(=O)OC)[C@@H](C)OC)[nH]c54)cc2-3)[nH]1 [GF, Methyl {(2S,3S)-1-[(2S,5S)-2-(5-{2-[(2S,5S)-1-{(2S,3R)-3-methoxy-2-[(methoxycarbonyl)amino]butanoyl}-5-methylpyrrolidin-2-yl]-1,11-dihydroisochromeno[4′,3′:6,7]naphtho[1,2-d]imidazol-9-yl}-1H-imidazol-2-yl)-5-methylpyrrolidin-1-yl]-3-methyl-1-oxopentan-2-yl}carbamate] | 0.027 nM | < 0.1 nM | 15.6% | 0.018 nM | < 0.1 nM | 0.007 nM | < 0.1 nM | 0.1 to 0.999 nM | 0.203 nM | 0.015 nM | 0.011 nM | < 0.1 nM |  |  |  |  |  |  |  |  |
| COC(=O)N[C@H](C(=O)N1[C@@H](C)CC[C@H]1c1ncc(-c2ccc3c(c2)COc2cc4c(ccc5nc([C@@H]6CC[C@H](C)N6C(=O)[C@@H](NC(=O)OC)[C@@H](C)OC(C)(C)C)[nH]c54)cc2-3)[nH]1)C(C)C [FG, Methyl {(2S,3R)-3-tert-butoxy-1-[(2S,5S)-2-(9-{2-[(2S,5S)-1-{(2S)-2-[(methoxycarbonyl)amino]-3-methylbutanoyl}-5-methylpyrrolidin-2-yl]-1H-imidazol-5-yl}-1,11-dihydroisochromeno[4′,3′:6,7]naphtho[1,2-d]imidazol-2-yl)-5-methylpyrrolidin-1-yl]-1-oxobutan-2-yl}carbamate] | 0.298 nM | 0.1 to 0.999 nM |  | 0.047 nM | < 0.1 nM | 0.024 nM | < 0.1 nM | 1 to 44 nM | 1.53 nM | 0.04 nM | 0.044 nM | < 0.1 nM | 1.45 nM | 1 to 44 nM | 0.1 to 0.999 nM | 0.577 nM |  |  |  |  |
| CC[C@H]1CC[C@@H](c2nc3ccc4cc5c(cc4c3[nH]2)OCc2cc(-c3cnc([C@@H]4CC[C@H](C)N4C(=O)[C@@H](NC(=O)OC)[C@@H](C)CC)[nH]3)ccc2-5)N1C(=O)[C@@H](NC(=O)OC)C1CCOCC1 [IK] | 0.155 nM | 0.1 to 0.999 nM | 27.4% | 0.015 nM | < 0.1 nM | 0.039 nM | < 0.1 nM | 0.1 to 0.999 nM | 0.181 nM | 0.038 nM | 0.042 nM | < 0.1 nM |  |  |  |  |  |  |  |  |
| CC[C@H]1CC[C@@H](c2ncc(-c3ccc4c(c3)COc3cc5c(ccc6nc([C@@H]7CC[C@H](C)N7C(=O)[C@@H](NC(=O)OC)[C@@H](C)OC)[nH]c65)cc3-4)[nH]2)N1C(=O)[C@@H](NC(=O)OC)C1CCOCC1 [HY] | 0.052 nM | < 0.1 nM |  | 0.015 nM | < 0.1 nM | 0.015 nM | < 0.1 nM | < 0.1 nM | 0.049 nM | 0.028 nM | 0.017 nM | < 0.1 nM | 0.026 nM | < 0.1 nM | < 0.1 nM | 0.046 nM | 0.055 nM | < 0.1 nM | 0.031 nM | < 0.1 nM |
